Data: patent publication US10183943B2, “Heterocyclic compounds and their use in preventing or treating bacterial infections” (MUTABILIS, priority 2015, dated 2019)
Counter-ions that a name gives are not always drawn.

Experiments:
CTX-M-15 = molecular target: T1, CTX-M-15 (Escherichia coli, UniProt Q9EXV5); assay: β-lactamase inhibitory activity, determination of IC50 (nitrocefin hydrolysis); assay type: biochemical; details: class (A); nitrocefin 200 μM, 30 min pre-incubation; read-out: IC50 β-lactamase CTX-M-15
T1 construct: made in house; host or cells: E. coli
T1 sequence (Q9EXV5 entry or part of it): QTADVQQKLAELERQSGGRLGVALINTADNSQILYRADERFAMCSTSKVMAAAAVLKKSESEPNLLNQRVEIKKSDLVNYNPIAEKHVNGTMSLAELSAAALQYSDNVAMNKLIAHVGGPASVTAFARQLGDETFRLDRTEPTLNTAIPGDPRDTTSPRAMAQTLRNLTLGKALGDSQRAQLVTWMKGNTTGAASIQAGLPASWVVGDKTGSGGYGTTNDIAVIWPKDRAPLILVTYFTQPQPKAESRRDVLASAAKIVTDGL

KPC-2 = molecular target: T2, KPC-2 (Klebsiella pneumoniae, UniProt Q9F663); assay: as above; assay type: biochemical; details: class (A); nitrocefin 200 μM, 30 min pre-incubation; read-out: IC50 β-lactamase KPC-2
T2 construct: made in house; host or cells: E. coli
T2 sequence (Q9F663 25-293 limits assumed): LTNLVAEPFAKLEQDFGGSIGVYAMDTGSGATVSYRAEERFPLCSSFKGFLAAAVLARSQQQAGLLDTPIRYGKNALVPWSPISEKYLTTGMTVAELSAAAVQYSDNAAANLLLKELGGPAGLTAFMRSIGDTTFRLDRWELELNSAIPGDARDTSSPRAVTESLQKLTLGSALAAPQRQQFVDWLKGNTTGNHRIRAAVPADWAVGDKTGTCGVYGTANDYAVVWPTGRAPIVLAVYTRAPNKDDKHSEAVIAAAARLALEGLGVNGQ

OXA-48 = molecular target: T3, OXA-48 (Klebsiella pneumoniae, UniProt Q6XEC0); assay: as above; assay type: biochemical; details: class (D); nitrocefin 200 μM, 30 min pre-incubation; read-out: IC50 β-lactamase OXA-48
T3 construct: made in house; host or cells: E. coli
T3 sequence (Q6XEC0 23-265 limits assumed): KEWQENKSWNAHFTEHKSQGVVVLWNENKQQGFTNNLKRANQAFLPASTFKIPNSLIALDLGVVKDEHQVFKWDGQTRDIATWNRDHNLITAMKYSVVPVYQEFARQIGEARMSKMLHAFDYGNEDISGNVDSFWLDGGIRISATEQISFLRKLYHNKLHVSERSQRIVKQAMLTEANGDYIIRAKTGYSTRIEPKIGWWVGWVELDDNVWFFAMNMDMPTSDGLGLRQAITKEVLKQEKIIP

TEM-1 = molecular target: T4, TEM-1 (Escherichia coli, UniProt P62593); assay: as above; assay type: biochemical
T4 construct: made in house; host or cells: E. coli
T4 sequence (P62593 24-286 limits assumed): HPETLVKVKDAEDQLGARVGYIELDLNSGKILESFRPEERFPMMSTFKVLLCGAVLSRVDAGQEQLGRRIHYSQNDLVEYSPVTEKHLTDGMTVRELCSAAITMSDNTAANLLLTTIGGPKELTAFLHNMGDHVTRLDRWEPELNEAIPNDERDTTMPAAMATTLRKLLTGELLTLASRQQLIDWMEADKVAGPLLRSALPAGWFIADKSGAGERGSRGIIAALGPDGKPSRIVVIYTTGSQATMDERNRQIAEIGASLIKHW

SHV-1 = molecular target: T5, SHV-1 (Klebsiella pneumoniae, UniProt P0AD64); assay: as above; assay type: biochemical
T5 construct: made in house; host or cells: E. coli
T5 sequence (P0AD64 22-286): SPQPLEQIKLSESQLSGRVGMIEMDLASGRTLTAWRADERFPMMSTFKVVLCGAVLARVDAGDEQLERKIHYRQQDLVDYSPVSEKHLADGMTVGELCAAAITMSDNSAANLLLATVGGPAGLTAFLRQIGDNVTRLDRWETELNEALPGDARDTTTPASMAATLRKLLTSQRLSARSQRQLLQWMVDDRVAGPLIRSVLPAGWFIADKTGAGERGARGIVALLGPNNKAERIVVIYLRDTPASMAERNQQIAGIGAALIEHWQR

E. cloacae P99 (AmpC) = assay: MIC of compounds alone, broth microdilution; assay type: cell-based; details: Enterobacter cloacae; strain P99 (E. cloacae); read-out: MIC compounds of the invention alone
Method in brief: (§1)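 Broth microdilution per CLSI M7-A7: compounds alone, in DMSO, challenged with log-phase bacteria at 5×10^5 cfu/mL in cation-adjusted Mueller-Hinton broth. Plates incubated 16-20 h at 35° C in ambient air; MIC is the lowest concentration preventing visible growth.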

[1] = test system: K. pneumoniae 6299 (TEM-1, SHV-11, OXA-163); assay: MIC of compounds alone, broth microdilution; assay type: cell-based; details: Klebsiella pneumoniae; strain 6299 (K. pneumoniae); read-out: MIC compounds of the invention alone
Method in brief: as §1

[2] = test system: K. pneumoniae 160143 (TEM-1, SHV-1, CTX-M-15, KPC-2, OXA-1); assay: MIC of compounds alone, broth microdilution; assay type: cell-based; details: Klebsiella pneumoniae, read-out: MIC compounds of the invention alone
Method in brief: as §1

[3] = test system: E. coli UFR18 (CTX-M-15, OXA-204); assay: MIC of compounds alone, broth microdilution; assay type: cell-based; details: Escherichia coli; strain UFR18 (E. coli); read-out: MIC compounds of the invention alone
Method in brief: as §1

[4] = test system: E. coli UFR32 (TEM-1, VEB-1, OXA-10); assay: MIC of compounds alone, broth microdilution; assay type: cell-based; details: Escherichia coli; strain UFR32 (E. coli); read-out: MIC compounds of the invention alone
Method in brief: as §1

[5] = test system: K. oxytoca UFR21 (TEM-1, CTX-M-15, OXA-48); assay: MIC of compounds alone, broth microdilution; assay type: cell-based; details: Klebsiella oxytoca, read-out: MIC compounds of the invention alone
Method in brief: as §1

[6] = test system: K. pneumoniae 200047 (TEM-1, SHV-32, CTX-M-15, OXA-1); assay: MIC of compounds alone, broth microdilution; assay type: cell-based; details: Klebsiella pneumoniae, read-out: MIC compounds of the invention alone
Method in brief: as §1

[7] = test system: E. coli UFR41 (TEM-1, CTX-M-15, CMY-2, OXA-1, NDM-4); assay: MIC of compounds alone, broth microdilution; assay type: cell-based; details: Escherichia coli, read-out: MIC compounds of the invention alone
Method in brief: as §1

[8] = test system: K. pneumoniae BAA-1898 (TEM-1, SHV-11, SHV-12, KPC-2); assay: MIC of compounds alone, broth microdilution; assay type: cell-based; details: Klebsiella pneumoniae, BAA1898; strain BAA-1898 (K. pneumoniae); read-out: MIC compounds of the invention alone
Method in brief: as §1

[9] = test system: E. coli UFR61O (TEM-1, KPC-2); assay: MIC of compounds alone, broth microdilution; assay type: cell-based; details: Escherichia coli; strain UFR61O (E. coli); read-out: MIC compounds of the invention alone
Method in brief: as §1

E. coli RGN238 (OXA-1) = assay: MIC of compounds alone, broth microdilution; assay type: cell-based; details: Escherichia coli; strain RGN238 (E. coli); read-out: MIC compounds of the invention alone
Method in brief: as §1

[10] = test system: K. pneumoniae UFR77 (CMY-2); assay: MIC of compounds alone, broth microdilution; assay type: cell-based; details: Klebsiella pneumoniae; strain UFR77 (K. pneumoniae); read-out: MIC compounds of the invention alone
Method in brief: as §1

[11] = test system: E. coli 131119 (TEM-1, OXA-48); assay: MIC of compounds alone, broth microdilution; assay type: cell-based; details: Escherichia coli; strain 131119 (E. coli); read-out: MIC compounds of the invention alone
Method in brief: as §1

[12] = test system: E. cloacae UFR51 (SHV-12, IMP-8); assay: MIC of compounds alone, broth microdilution; assay type: cell-based; details: Enterobacter cloacae; strain UFR51 (E. cloacae); read-out: MIC compounds of the invention alone
Method in brief: as §1

[13] = test system: P. aeruginosa CIP107051 (TEM-24); assay: MIC of compounds alone, broth microdilution; assay type: cell-based; details: Pseudomonas aeruginosa; strain CIP107051 (P. aeruginosa); read-out: MIC compounds of the invention alone
Method in brief: as §1

[14] = test system: K. pneumoniae UFR24 (TEM-1, SHV-2, SHV-11, OXA-1, OXA-48, OXA-47); assay: MIC of compounds alone, broth microdilution; assay type: cell-based; details: Klebsiella pneumoniae; strain UFR24 (K. pneumoniae); read-out: MIC compounds of the invention alone
Method in brief: as §1

[15] = test system: K. pneumoniae UFR39 (CTX-M-15, NDM-1); assay: MIC of compounds alone, broth microdilution; assay type: cell-based; details: Klebsiella pneumoniae; strain UFR39 (K. pneumoniae); read-out: MIC compounds of the invention alone
Method in brief: as §1

[16] = test system: E. coli UFR74 (SHV-1, DHA-1); assay: MIC of compounds alone, broth microdilution; assay type: cell-based; details: Escherichia coli; strain UFR74 (E. coli); read-out: MIC compounds of the invention alone
Method in brief: as §1

| SMILES | IC50 (CTX-M-15) [nM] | IC50 (KPC-2) [nM] | IC50 (OXA-48) [nM] | IC50 (TEM-1) [nM] | IC50 (SHV-1) [nM] | MIC (E. cloacae P99 (AmpC)) [µg/mL] | MIC [1] [µg/mL] | MIC [2] [µg/mL] | MIC [3] [µg/mL] | MIC [4] [µg/mL] | MIC [5] [µg/mL] | MIC [6] [µg/mL] | MIC [7] [µg/mL] | MIC [8] [µg/mL] | MIC [9] [µg/mL] | MIC (E. coli RGN238 (OXA-1)) [µg/mL] | MIC [10] [µg/mL] | MIC [11] [µg/mL] | MIC [12] [µg/mL] | MIC [13] [µg/mL] | further results |
| --- | --- | --- | --- | --- | --- | --- | --- | --- | --- | --- | --- | --- | --- | --- | --- | --- | --- | --- | --- | --- | --- |
| O=C1N2CC=C(c3cnco3)C(C2)N1OS(=O)(=O)[O-].[Na+] (stereo not drawn) [Example 3, Sodium [4-(oxazol-5-yl)-7-oxo-1,6-diazabicyclo[3.2.1]oct-3-en-6-yl]sulfate] | 2.8 | 290 | 3.5 | 3.4 | 6.9 | 8 | > 32 | > 32 | 2 | > 32 | > 32 | > 32 | > 32 | > 32 | 16 | 16 | > 32 | 4 | 2 | > 32 | MIC [14]: > 32 µg/mL; MIC [15]: 4 µg/mL; MIC [16]: > 32 µg/mL |
| Cn1cc(C2=CCN3CC2N(OS(=O)(=O)[O-])C3=O)cnc1=O.[Na+] (stereo not drawn) [Example 15, Sodium [4-(N-methyl-2-oxo-pyrimidin-5-yl)-7-oxo-1,6-diazabicyclo[3.2.1]oct-3-en-6-yl] sulfate] | 6.3 | 110 | 7.9 | 9.9 | 12 | 2 | > 32 | > 32 | 0.5 | 1 | 32 | > 32 | > 32 | > 32 | 8 | 16 | > 32 | 4 | 0.5 | > 32 | MIC [14]: > 32 µg/mL; MIC [15]: 0.5 µg/mL; MIC [16]: > 32 µg/mL |
| Cn1ncc(C2=CCN3CC2N(OS(=O)(=O)[O-])C3=O)cc1=O.[Na+] (stereo not drawn) [Example 19, Sodium [4-(1-methyl-6-oxo-pyridazin-4-yl)-7-oxo-1,6-diazabicyclo[3.2.1]oct-3-en-6-yl] sulfate] | 5.4 | 46 | 4.7 | 4 | 8.9 | 8 | > 32 | > 32 | 4 | > 32 | > 32 | > 32 | > 32 | > 32 | > 32 | 32 | > 32 | 2 | 4 | > 32 | MIC [14]: > 32 µg/mL; MIC [15]: 4 µg/mL; MIC [16]: > 32 µg/mL |
| O=C1N2CC(c3ncco3)=CC(C2)N1OS(=O)(=O)[O-].[Na+] (stereo not drawn) [Example 25, Sodium [3-(oxazol-2-yl)-7-oxo-1,6-diazabicyclo[3.2.1]oct-3-en-6-yl]sulfate] | 15 | 30 | 6.6 | 3.8 | 15 | 8 | 8 | 4 | 2 | 2 | 4 | 2 | 16 | 4 | 8 | 2 | 4 | 2 | 4 | > 128 | MIC [14]: 4 µg/mL; MIC [15]: 8 µg/mL; MIC [16]: 4 µg/mL |
| NCc1cnc(C2=CC3CN(C2)C(=O)N3OS(=O)(=O)O)s1 (stereo not drawn) [Example 38, [3-[5-(aminomethyl)thiazol-2-yl]-7-oxo-1,6-diazabicyclo[3.2.1]oct-3-en-6-yl] hydrogen sulfate] | 0.79 | 19 | 7.7 | 0.7 | 4.3 | 4 | > 32 | 8 | 0.5 | 32 | 16 | 8 | 1 | > 32 | 2 | 32 | 32 | 4 | 1 | > 32 | MIC [14]: > 32 µg/mL; MIC [15]: 0.5 µg/mL; MIC [16]: 32 µg/mL |
| O=C1N2CC(c3ncco3)=C[C@H](C2)N1OS(=O)(=O)[O-].[Na+] [Example 44, Sodium [(5R)-3-(oxazol-2-yl)-7-oxo-1,6-diazabicyclo[3.2.1]oct-3-en-6-yl] sulfate] | 0.61 | 11 | 1.5 | 0.69 | 6 | 4 | 4 | 1 | 1 | 1 | 4 | 1 | 4 | 4 | 4 | 1 | 2 | 0.5 | 1 | > 32 | MIC [14]: 2 µg/mL; MIC [15]: 4 µg/mL; MIC [16]: 2 µg/mL |
